Test results published in US8124655B2, “Use of LR-90 and LR-102 to overcome insulin resistance” (City of Hope, priority 2007, dated 2012).

Tests used:
[1] = tested on: TGF-β1, CTGF, fibronectin and collagen IV; test: Renal TGF-β1, CTGF and ECM proteins by RT-PCR, western blot and immunostaining; format: in vivo, rat
From the text: Tissue sections were deparaffinised by sequential exposure to xylene and ethanol, dehydrated and then exposed to H2O2 to eliminate endogenous peroxidase activity. The kidney sections were then blocked with 2% (wt/vol.) BSA and exposed to specific antibodies against AGE, AGER, TGF-β1, CTGF, fibronectin and collagen type IV. Biotinylated anti-rabbit or anti-mouse IgG was then applied as a secondary antibody, followed by horseradish peroxidase conjugated streptavidin. The staining was visualised by reaction with 3,3′-diaminobenzidine tetrahydrochloride and then counterstained with haematoxylin. All the sections were examined by light microscopy (Olympus AX70) and photographed with Retiga 2000R camera.
(§1) Renal cortical tissues were homogenised in PBS buffer with 1% (vol./vol.) Nonidet P-40, 0.5% (wt/vol.) sodium deoxycholate, 0.1% (wt/vol.) SDS and protease inhibitor mixture (Roche, Indianapolis, Ind., USA). Homogenates were centrifuged for 15 min at 4° C. and at 12,000 rpm and the supernatant fractions collected and stored at −70° C. Nuclear extracts were prepared as described previously. Protein concentrations were measured using the Bio-Rad DC Assay kit. Total RNA was isolated using the RNA-STAT-60 reagent (Tel-Test, Friendswood, Tex., USA). Western blot assay Protein samples (50 μg) were separated on 10 to 20% gradient Tris-glycine Criterion gels (Bio-Rad) and then transferred to nitrocellulose membranes. The membranes were blocked with 5% (wt/vol.) skimmed milk in PBS before incubation with anti-TGF-β1, anti-CTGF, anti-AGER, anti-phospho-p38 MAPK, anti-phospho-p44/42 MAPK and anti-p65 NF-κB antibodies. Immunoreactive proteins were detected by enhanced chemiluminescence (Western Lightning Chemiluminescence Reagent; Perkin-Elmer, Waltham, Mass., USA) using horseradish peroxidase-labelled secondary antibodies. Equal amounts of protein loading were confirmed by restaining the membranes with antibodies against β-actin, p38 MAPK or p44/42 MAPK for cytosolic extracts or with histone H2B for nuclear extracts. Band intensities were quantified using a densitometer (Quantity One, Bio-Rad). Reverse transcriptase-polymerase chain reaction Total RNA (1 μg) was used for the RT reaction using the GeneAmp RNA PCR kit (Applied Biosystems, Foster City, Calif., USA). Total cDNA was then used in PCR reactions containing gene specific primers [Electronic supplementary material (ESM) Table 1] paired with Quantum 18S rRNA internal standards (Ambion, Austin, Tex., USA). Multiplex PCR reactions were performed in a GeneAmp 9700 (Applied Biosystems). […] The densities of amplified products corresponding to specific genes and 18S rRNA were quantified with Quantity One software (Bio-Rad). Results are expressed as the means of the ratios of Tgfb1, Ctgf or Ager band densities to the 18S rRNA band density.

[2] = tested on: p38 MAPK, p44/42 MAPK, p65 subunit of NF-κB; test: Renal MAPKs and NF-κB activation by western blot; format: in vivo, rat
Experimental: as §1

[3] = tested on: Zucker diabetic fatty (ZDF) rat; test: Kidney histopathology: PAMS and Masson's trichrome staining; format: in vivo; details: kidney of ZDF rats, p<0.01 vs ZDF
From the text: Kidney sections were stained with periodic acid-Schiff-methenamine silver (PAMS) to evaluate glomerulosclerosis and mesangial matrix expansion; Masson's trichrome staining was used to analyse collagen deposition and cortical tubule degeneration. Glomerulosclerosis was defined as glomerular basement membrane thickening, mesangial hypertrophy and capillary occlusion, and was semiquantitatively evaluated on an arbitrary scale of 0 to 4: grade 0 (normal); grade 1 (sclerotic area less than 25%); grade 2 (sclerotic area 25-50%); grade 3 (sclerotic area 50-75%); and grade 4 (sclerotic area more than 75%). The glomerulosclerotic index was then calculated as described. Briefly, 100 glomeruli were randomly chosen from each rat kidney stained with PAMS and carefully scored for sclerosis by two blinded investigators. This was done in a sequential manner to ensure that the same glomerulus was not graded twice. To quantify for mesangial expansion and ECM accumulation in the mesangial areas, PAMS-positive materials in the mesangial region excluding cellular elements were analysed using an image analyser with a microscope (Olympus AX70; Olympus Optical, Hamburg, Germany) and photographed using a Retiga 2000R CCD camera (Qimaging, Surrey, BC, Canada). Twenty glomeruli, randomly selected from each rat were evaluated by two investigators without knowledge of the origin of the slides. The percentage of PAMS-positive area in each glomerulus was analysed using Image Pro Plus (Media Cybernetics, Silver Spring, Mass., USA). Results were expressed as percentage of areas positive for PAMS staining. To evaluate cortical tubule degeneration and collagen deposition, kidney sections were stained withMasson's trichrome. In each section, six fields of kidney cortex were randomly selected at 100× magnification using an Olympus AX70 microscope, photographed using a Retiga 2000R camera and the images analysed by Image Pro Plus. Blue and red colours indicate collagen and cytoplasm staining, respectively. Degenerate tubules in each field were identified by the absence of cytoplasm and results expressed as number of degenerate tubules per field. For quantitative measurement of collagen deposition, positively stained areas from six random regions in each slide were identified and scored by dividing the positively stained areas by the total tissue area in the same field using the colour separation function of Image Pro Plus. Results were expressed as percentage of area with positive staining.

[4] = tested on: Zucker diabetic fatty rats (ZDF, fa/fa); test: Metabolic data of ZDF rats treated with LR-90 or LR-102 (Example 2); format: in vivo, rat
Experimental: The present Example presents the results of an investigation of the effects of LR-90, an inhibitor of AGE/ALE formation, in male Zucker diabetic fatty rats (ZDF, fa/fa) fed with Purina 5008 diet until 40 weeks of age, and their hetorozygous lean littermates (ZDF fa/+) as non-hyperglycemic controls. LR-90 at 50 mg/L of drinking water was given to a subgroup of ZDF rats after the rats developed spontaneous diabetes at 13 weeks of age. At 40 weeks of age, and before killing the animals, their weight was measured; HbA1c, plasma glucose, insulin, triglycerides, cholesterol, CRP and urinary albumin and creatinine concentrations were measured. After euthanizing all animals, organs such as the kidneys, eyeballs, liver, heart, aortae and pancreas were dissected and subjected to immunohistochemical staining, RT-PCR, Western blotting and microscopy.

[5] = tested on: Cybb, the gene encoding for the gp91phox subunit of NADPH; test: Kidney expression of Cybb (data not shown); format: in vivo, rat; details: ZDF rats
[6] = kidneys of ZDF rats, to almost similar levels as in ZL rats
[7] = ZDF rats at 40 weeks of age, Mean ± SEM

CC(C)(Oc1ccc(NC(=O)Nc2ccc(Cc3ccc(NC(=O)Nc4ccc(OC(C)(C)C(=O)O)cc4)c(Cl)c3)cc2Cl)cc1)C(=O)O [LR-90, methylene bis[4,4′-(2-chlorophenylureidophenoxyisobutyric acid)]]
mRNA expression and protein production of CTGF ([1]; kidneys of ZDF animals): significantly attenuated | mRNA expression and protein production of TGF-β1 ([1]; kidneys of ZDF animals): significantly attenuated | positive immunostaining for collagen IV [1, 6]: markedly reduced | positive immunostaining for fibronectin [1, 6]: markedly reduced | activation of NF-κB (p65 subunit) ([2]; kidney nuclear extracts of ZDF rats, p<0.01): significantly attenuated | activation of p44/42 MAPK ([2]; renal cortex of ZDF rats, p<0.01): significantly attenuated | activation of p38 MAPK ([2]; renal cortex of ZDF rats, p<0.05): significantly attenuated | quantitative scoring for PAMS staining ([3]; FIG. 1c): reduced significantly | tubular degeneration ([3]; FIG. 1e): reduced significantly | percentage positive collagen area staining ([3]; FIG. 1f): reduced significantly | glomerulosclerosis index (GSI) ([3]; FIG. 1d): reduced significantly | Plasma glucose ([4]; ZDF rats at 40 weeks of age, drug in drinking water, Mean ± SEM): 25 ± 2.3 mM | Cholesterol [4, 7]: 244 ± 13 mg/dL | HbA1c [4, 7]: 2.89 ± 0.07% | Plasma CRP [4, 7]: 0.58 ± 0.09 mg/mL | Plasma insulin, ELISA [4, 7]: 0.64 ± 0.10 ng/mL | Plasma insulin, RIA [4, 7]: 0.63 ± 0.04 ng/mL | Triglycerides [4, 7]: 384 ± 51 mg/dL | Urinary Albumin [4, 7]: 27.8 ± 4.8 mg/24 h | effect on hyperglycemia ([4]; ZDF rats, Example 2): no effect | effect on hyperlipidemia ([4]; ZDF rats, Example 2): significantly reduced | increase in CRP levels ([4]; ZDF rats, Example 2): attenuated | increased kidney expression of Cybb [5]: attenuated
